Results as given in patent US11242351B2, “Tricyclic inhibitors of the BCL6 BTB domain protein-protein interaction and uses thereof” (priority 2017, dated 2022).
Where two headings read alike, the source gives them in different places.

Key:
Karpas422 cells = test: Tumor cell growth inhibition assay; format: cell-based; conditions: Homo sapiens, KARPAS-422, 144 h, read-out: GI Karpas EC50
Procedure, shortened: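 Karpas422 cells were dosed over a 10-point concentration range (top 5 μM) and grown 6 days at 37 °C, 5% CO2, in Alpha-MEM with 10% FBS. Viability was read as ATPlite luminescence.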

[1] = system: BCL6 reporter construct in SuDHL4-3×BCL6-TK-Luc cells; test: Cell-based luciferase assay (BCL6 reporter); conditions: 48 h, read-out: Luc IC50
Procedure, shortened: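 SuDHL4 cells stably carrying a 3×BCL6-site TK-promoter firefly luciferase reporter, 15,000 cells/well, dosed over 10 concentrations (top 10 μM) and cultured two days at 37° C, 5% CO2. Luciferase luminescence read after room-temperature equilibration with neolite reagent.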

[2] = target: BCL6 BTB domain (biotin-thrombin-BCL6 amino acids 1-129) (Homo sapiens (Human), UniProt P41182); test: Surface Plasmon Resonance (SPR) assay; format: binding; conditions: Biacore T200, single cycle kinetic analysis
Procedure: Surface Plasmon Resonance (SPR) Assay
SPR studies were performed using a Biacore™ T200 instrument (GE Health Sciences Inc.). […] The Biacore flow rate was set at 100 μl/min. […] Curve fitting and KD calculations were performed with the Biacore T200 Evaluation software (GE Health Sciences Inc).

[3] = Karpas422 cells, six days, ATPlite
[4] = SuDHL4-3×BCL6-TK-Luc cells, two days

Row | Compound | EC50 (Karpas422 cells) [nM] | IC50 [1] [nM] | Kd [2] [nM] | EC50 (Karpas422 cells; [3]) [nM] | IC50 [1, 4] [nM]
1 | COc1c(-c2cn(CC(=O)Nc3cc(N4CCOC[C@@H]4C)nc(F)c3Cl)c3nc4n(c(=O)c23)CCC4)cc(C(N)=O)c(O)c1OC [I-70, (S)-5-(1-(2-((3-chloro-2-fluoro-6-(3-methyl-morpholino)pyridin-4-yl)amino)-2-oxoethyl)-4-oxo-4,6,7,8-tetra-hydro-1H-dipyrrolo [1,2-a:2′,3′-d]pyrimi-din-3-yl)-2-hydroxy-3,4-dimethoxy-benzamide] | 4070 | 3820 | 255 |  | 
2 | CCOCCN1CCN(c2cc(NC(=O)Cn3cc(-c4cc(C(N)=O)c(O)c(OC)c4OC)c4c(=O)n5c(nc43)CCC5)c(Cl)c(F)n2)[C@@H](C)C1 [I-71, (S)-5-(1-(2-((3-chloro-6-(4-(2-ethoxyethyl)-2-methylpiperazin-1-yl)-2-fluoropyridin-4-yl)amino)-2-oxo-ethyl)-4-oxo-4,6,7,8-tetrahydro-1H-dipyrrolo [1,2-a:2′,3′-d]pyrimidin-3-yl)-2-hydroxy-3,4-dimethoxybenzamide] |  |  | 181 | 1370 | 1640
3 | COc1c(-c2cn(CC(=O)Nc3cc(N4CCN(C5COC5)C[C@@H]4C)nc(F)c3Cl)c3nc4n(c(=O)c23)CCC4)cc(C(N)=O)c(O)c1OC [I-72, (S)-5-(1-(2-((3-chloro-2-fluoro-6-(2-methyl-4-(oxetan-3-yl)pipera-zin-1-yl)pyridin-4-yl)amino)-2-oxoethyl)-4-oxo-4,6,7,8-tetra-hydro-1H-dipyrrolo [1,2-a:2′,3′-d]pyrimi-din-3-yl)-2-hydroxy-3,4-dimethoxy-benzamide] | 429 | 1560 | 85.1 |  | 
4 | C[C@H]1CN(C)C[C@H](C)N1c1cc(NC(=O)Cn2cc(-c3cc(C(N)=O)c(O)c(F)c3F)c3c(=O)n4c(nc32)CCC4)c(Cl)c(F)n1 [I-73, 5-(1-(2-((3-chloro-2-fluoro-6-((2S,6S)-2,4,6-trimethyl-piperazin-1-yl)pyridin-4-yl)amino)-2-oxo-ethyl)-4-oxo-4,6,7,8-tetrahydro-1H-dipyrrolo [1,2-a:2′,3′-d]pyrimidin-3-yl)-3,4-difluoro-2-hydroxybenzamide] | 648 | 1050 | 58.6 |  | 
5 | NC(=O)c1cc(-c2cn(CC(=O)Nc3cc(N4CCCC4)nc(F)c3Cl)c3nc4n(c(=O)c23)CCC4)cc(Cl)c1O [I-74, 3-chloro-5-(1-(2-((3-chloro-2-fluoro-6-(pyrrolidin-1-yl)pyridin-4-yl)amino)-2-oxo-ethyl)-4-oxo-4,6,7,8-tetrahydro-1H-dipyrrolo [1,2-a:2′,3′-d]pyrimidin-3-yl)-2-hydroxy-benzamide] |  |  | 14.8 | 210 | 148
6 | COCCN1CCN(c2cc(NC(=O)Cn3cc(-c4cc(Cl)c(O)c(C(N)=O)c4)c4c(=O)n5c(nc43)CCC5)c(Cl)c(F)n2)[C@@H](C)C1 [I-75, (S)-3-chloro-5-(1-(2-((3-chloro-2-fluoro-6-(4-(2-methoxyethyl)-2-methylpiperazin-1-yl)pyridin-4-yl)amino)-2-oxoethyl)-4-oxo-4,6,7,8-tetra-hydro-1H-dipyrrolo [1,2-a:2′,3′-d]pyrimi-din-3-yl)-2-hydroxy-benzamide] |  |  | 3.7 | 48.9 | 36.7
7 | NC(=O)c1cc(-c2cn(CC(=O)Nc3cc(N4CCCC4)nc(F)c3Cl)c3nc4n(c(=O)c23)CCC4)cc(F)c1O [I-76, 5-(1-(2-((3-chloro-2-fluoro-6-(pyrrolidin-1-yl)pyridin-4-yl)amino)-2-oxoethyl)-4-oxo-4,6,7,8-tetrahydro-1H-dipyrrolo[1,2-a:2′,3′-d]pyrimidin-3-yl)-3-fluoro-2-hydroxy-benzamide] |  |  | 3.02 | 92.8 | 85.1
8 | COCCN1CCN(c2cc(NC(=O)Cn3cc(-c4cc(F)c(O)c(C(N)=O)c4)c4c(=O)n5c(nc43)CCC5)c(Cl)c(F)n2)[C@@H](C)C1 [I-77, (S)-5-(1-(2-((3-chloro-2-fluoro-6-(4-(2-methoxyethyl)-2-methylpiperazin-1-yl)pyridin-4-yl)amino)-2-oxoethyl)-4-oxo-4,6,7,8-tetrahydro-1H-dipyrrolo[1,2-a:2′,3′-d]pyrimidin-3-yl)-3-fluoro-2-hydroxy-benzamide] |  |  | 1.42 | 20.7 | 27.4
9 | CC1Cc2nc3c(c(-c4cc(F)c(O)c(C(N)=O)c4)cn3CC(=O)Nc3cc(N4CCN(C)C[C@@H]4C)nc(F)c3Cl)c(=O)n2C1 (stereo partly drawn) [I-78, 5-(1-(2-((3-chloro-6-((S)-2,4-dimethyl-piperazin-1-yl)-2-fluoropyridin-4-yl)amino)-2-oxoethyl)-7-methyl-4-oxo-4,6,7,8-tetrahydro-1H-dipyrrolo[1,2-a:2′,3′-d]pyrimidin-3-yl)-3-fluoro-2-hydroxy-benzamide] |  |  | 2.03 | 21 | 30.7
10 | C[C@H]1CN(C)CCN1c1cc(NC(=O)Cn2cc(-c3cc(F)c(O)c(C(N)=O)c3)c3c(=O)n4c(nc32)CC(C)(C)C4)c(Cl)c(F)n1 [I-79, (S)-5-(1-(2-((3-chloro-6-(2,4-dimethyl-piperazin-1-yl)-2-fluoropyridin-4-yl)amino)-2-oxoethyl)-7,7-dimethyl-4-oxo-4,6,7,8-tetrahydro-1H-dipyrrolo[1,2-a:2′,3′-d]pyrimidin-3-yl)-3-fluoro-2-hydroxy-benzamide] |  |  | 2.79 | 39.8 | 35.2
11 | CN(C)c1cc(NC(=O)Cn2cc(-c3cc(F)c(O)c(C(N)=O)c3)c3c(=O)n4c(nc32)CCC4)c(Cl)c(F)n1 [I-80, 5-(1-(2-((3-chloro-6-(dimethylamino)-2-fluoropyridin-4-yl)amino)-2-oxoethyl)-4-oxo-4,6,7,8-tetrahydro-1H-dipyrrolo[1,2-a:2′,3′-d]pyrimidin-3-yl)-3-fluoro-2-hydroxy-benzamide] |  |  | 3.83 | 70.1 | 87.2
12 | CCN1CCN(c2cc(NC(=O)Cn3cc(-c4cc(F)c(O)c(C(N)=O)c4)c4c(=O)n5c(nc43)CCC5)c(Cl)c(F)n2)[C@@H](C)C1 [I-81, (S)-5-(1-(2-((3-chloro-6-(4-ethyl-2-methyl-piperazin-1-yl)-2-fluoropyridin-4-yl)amino)-2-oxoethyl)-4-oxo-4,6,7,8-tetrahydro-1H-dipyrrolo[1,2-a:2′,3′-d]pyrimidin-3-yl)-3-fluoro-2-hydroxy-benzamide] |  |  | 1.55 | 31.3 | 28.3
13 | CCN1CCN(c2cc(NC(=O)Cn3cc(-c4cc(Cl)c(O)c(C(N)=O)c4)c4c(=O)n5c(nc43)CCC5)c(Cl)c(F)n2)[C@@H](C)C1 [I-82, (S)-3-chloro-5-(1-(2-((3-chloro-6-(4-ethyl-2-methylpiperazin-1-yl)-2-fluoropyridin-4-yl)amino)-2-oxoethyl)-4-oxo-4,6,7,8-tetra-hydro-1H-dipyrrolo [1,2-a:2′,3′-d]pyrimi-din-3-yl)-2-hydroxy-benzamide] |  |  | 4.13 | 27.8 | 63.1
14 | C[C@H]1CN(C)C[C@H](C)N1c1cc(NC(=O)Cn2cc(-c3cc(F)c(O)c(C(N)=O)c3)c3c(=O)n4c(nc32)CCC4)c(Cl)c(F)n1 [I-83, 5-(1-(2-((3-chloro-2-fluoro-6-((2S,6S)-2,4,6-trimethylpiperazin-1-yl)pyridin-4-yl)amino)-2-oxoethyl)-4-oxo-4,6,7,8-tetrahydro-1H-dipyrrolo[1,2-a:2′,3′-d]pyrimidin-3-yl)-3-fluoro-2-hydroxy-benzamide] |  |  | 11.2 | 109 | 465
15 | C[C@H]1COCCN1c1cc(NC(=O)Cn2cc(-c3cc(C(N)=O)c(O)c4c3OCO4)c3c(=O)n4c(nc32)CCC4)c(Cl)cn1 [I-85, (S)-7-(1-(2-((5-chloro-2-(3-methylmorpholino)pyridin-4-yl)amino)-2-oxoethyl)-4-oxo-4,6,7,8-tetrahydro-1H-dipyrrolo[1,2-a:2′,3′-d]pyrimidin-3-yl)-4-hydroxybenzo[d][1,3] dioxole-5-carboxamide] |  |  | 1.61 | 29.6 | 15.4
16 | CCN1CCN(c2cc(NC(=O)Cn3cc(-c4cc(C(N)=O)c(O)c5c4OCO5)c4c(=O)n5c(nc43)CCC5)c(Cl)c(F)n2)[C@@H](C)C1 [I-86, (S)-7-(1-(2-((3-chloro-6-(4-ethyl-2-methyl-piperazin-1-yl)-2-fluoropyridin-4-yl)amino)-2-oxoethyl)-4-oxo-4,6,7,8-tetrahydro-1H-dipyrrolo[1,2-a:2′,3′-d]pyrimidin-3-yl)-4-hydroxybenzo[d][1,3] dioxole-5-carboxamide] | 6.88 | 7.85 | 0.81 |  | 
17 | CC1Cc2nc3c(c(-c4cc(C(N)=O)c(O)c5c4OCO5)cn3CC(=O)Nc3cc(N4CCN(C)C[C@@H]4C)nc(F)c3Cl)c(=O)n2C1 (stereo partly drawn) [I-87, 7-(1-(2-((3-chloro-6-((S)-2,4-dimethyl-piperazin-1-yl)-2-fluoropyridin-4-yl)amino)-2-oxoethyl)-7-methyl-4-oxo-4,6,7,8-tetrahydro-1H-dipyrrolo[1,2-a:2′,3′-d]pyrimidin-3-yl)-4-hydroxybenzo[d][1,3] dioxole-5-carboxamide] |  |  | 0.77 | 9.04 | 10.6
